According to publication PMC9655037, “Alternation of Organ-Specific Exposure in LPS-Induced Pneumonia Mice after the Inhalation of Tetrandrine Is Governed by Metabolizing Enzyme Suppression and Lysosomal Trapping” (International Journal of Molecular Sciences, 2022):
Where “and” joins values, the source holds several entries; their conditions need not be identical. Equal entries are not always repeated.

Test: Tissue distribution of TET after a single i.t. administration in normal and LPS-treated mice
Conditions: for AUC(0-inf) / Cmax / MRT / Tmax / half-life / Kp / AUC(0-t): BALB/c, mouse; for AUC(0-inf) / Cmax / MRT / Tmax / half-life / AUC(0-t): inhaled or intranasal; for AUC(0-inf) / Cmax / MRT / Tmax / half-life / Kp / AUC(0-t) / Kp (AUC in tissue divided by AUC in blood): 15 mg/kg, 15 mg/kg i.t.; for Kp: other: intratracheal (i.t.), Kp (AUC in tissue divided by AUC in blood)
Method: The different tissue distribution characteristics of TET in normal and pneumonia model mice via i.t. delivery were investigated. Thirty BALB/c mice were randomly divided into ten groups (n = 3 for each group). Five groups of mice were intratracheally injected with 15 mg/kg TET (dissolved in 22.5 mg/mL aspartic acid solution) as control groups, and the other five groups received i.t. administration of 15 mg/kg TET 6 h after i.t. injection of 50 μL LPS (5 mg/mL) as model groups. One control group and one model group were sacrificed simultaneously at the set time points of 2, 4, 8, 24, and 144 h after the administration of TET. After a cardiac puncture to obtain blood samples, tissue samples including heart, liver, spleen, lung, kidney, stomach, intestine, and brain were immediately harvested and all the tissues were thoroughly rinsed in ice physiological saline. All the tissue samples were weighed and stored with blood samples at −40 °C for LC-MS/MS analysis.
Pharmacokinetic parameters including t1/2, AUC(0-t), AUC(0-∞), and MRT were calculated using WinNonlin 7.0 (Pharsight, CA) by the non-compartmental model. Initial plasma concentration post i.v. (C0-i.v.) was extrapolated from the first three points of the logarithmic plasma concentration. The area under the blood concentration–time curve from t = 0 to infinity (AUCinf) was estimated using the linear trapezoidal rule. Blood clearance (CL) was calculated as the i.v. dose divided by AUCinf. Apparent steady-state distribution volume (Vss) was determined by the clearance multiplied by mean residence time. The distribution volume in the elimination phase (Vz) was determined by the clearance divided by the first-order rate constant of the terminal elimination phase (λz). The tissue partition ratio (Kp) of each tissue was calculated as Equation (1). (1) Kp=AUC(0−∞,tissue)/AUC(0−∞,plasma)

Compound: COc1ccc2cc1Oc1ccc(cc1)C[C@H]1c3cc(c(OC)cc3CCN1C)Oc1c(OC)c(OC)cc3c1[C@H](C2)N(C)CC3 [TET, Tetrandrine]
- AUC(0-inf) (kidney, normal mice): 8160 ± 422 µg·h/mL
- Cmax (kidney, LPS-treated mice): 112 ± 11.5 µg/mL
- Cmax (kidney, normal mice): 107 ± 16.6 µg/mL
- MRT (kidney, LPS-treated mice): 101 ± 30 h
- MRT (kidney, normal mice): 80.1 ± 16.6 h
- Tmax (kidney, LPS-treated mice): 5.33 ± 2.31 h
- Tmax (kidney, normal mice): 3.33 ± 1.15 h
- half-life (kidney, t1/2, LPS-treated mice): 77.8 ± 18.1 h
- half-life (kidney, t1/2, normal mice): 63.4 ± 8.09 h
- Kp (kidney, LPS-treated mice, kidney): 36.2 ± 3.83
- Kp (kidney, normal mice, kidney): 37.5 ± 5.7
- AUC(0-inf) (liver, LPS-treated mice): 7430 ± 632 µg·h/mL
- AUC(0-inf) (liver, normal mice): 5480 ± 237 µg·h/mL
- Cmax (liver, LPS-treated mice): 76.3 ± 7.02 µg/mL
- Cmax (liver, normal mice): 83.3 ± 9.29 µg/mL
- MRT (liver, LPS-treated mice): 82.1 ± 15.6 h
- MRT (liver, normal mice): 53.9 ± 8.29 h
- Tmax (liver, LPS-treated mice): 3.33 ± 1.15 h
- Tmax (liver, normal mice): 4 h
- half-life (liver, t1/2, LPS-treated mice): 69.3 ± 14.8 h
- half-life (liver, t1/2, normal mice): 47.5 ± 5.47 h
- Kp (liver, LPS-treated mice, liver): 27 ± 1.72
- Kp (liver, normal mice, liver): 28 ± 3.49
- AUC(0-t) (lung, LPS-treated mice): 10000 µg·h/mL
- AUC(0-inf) (lung, normal mice): 5300 ± 721 µg·h/mL
- Cmax (lung, LPS-treated mice): ≥ 96.2 µg/mL
- Cmax (lung, normal mice): 60.3 ± 3.21 µg/mL
- MRT (lung, normal mice): 78.3 ± 24.5 h
- Tmax (lung, LPS-treated mice): ≥ 144 h
- Tmax (lung, normal mice): 13.3 ± 9.24 h
- half-life (lung, t1/2, normal mice): 65.1 ± 18.3 h
- Kp (lung, LPS-treated mice, lung): 45.8 ± 6.49
- Kp (lung, normal mice, lung): 24.7 ± 6.06
- Kp (muscle / blood, normal mice, muscle): 2
- AUC(0-inf) (muscle, LPS-treated mice): 674 ± 240 µg·h/mL
- AUC(0-inf) (muscle, normal mice): 410 ± 80.1 µg·h/mL
- Cmax (muscle, LPS-treated mice): 7.51 ± 2.11 µg/mL
- Cmax (muscle, normal mice): 6.12 ± 0.44 µg/mL
- MRT (muscle, LPS-treated mice): 101 ± 44.4 h
- MRT (muscle, normal mice): 57.7 ± 7.81 h
- Tmax (muscle, LPS-treated mice): 6.67 ± 2.31 h
- Tmax (muscle, normal mice): 4 ± 3.16 h
- half-life (muscle, t1/2, LPS-treated mice): 78.8 ± 31.3 h
- half-life (muscle, t1/2, normal mice): 49.2 ± 4.06 h
- Kp (muscle, LPS-treated mice, muscle): 2.2 ± 0.31
- AUC(0-inf) (spleen, LPS-treated mice): 16000 µg·h/mL
- AUC(0-inf) (spleen, normal mice): 11300 µg·h/mL
- Cmax (spleen, LPS-treated mice): 89.7 ± 10.7 µg/mL
- Cmax (spleen, normal mice): 89.7 ± 7.09 µg/mL
- MRT (spleen, LPS-treated mice): 157 ± 29.5 h
- MRT (spleen, normal mice): 112 ± 34.7 h
- Tmax (spleen, LPS-treated mice): 17.3 ± 11.5 h
- Tmax (spleen, normal mice): 12 ± 10.6 h
- half-life (spleen, t1/2, LPS-treated mice): 111 ± 18.3 h
- half-life (spleen, t1/2, normal mice): 83.8 ± 22.7 h
- Kp (spleen, LPS-treated mice, spleen): 43.3 ± 6.88
- Kp (spleen, normal mice, spleen): 45.7 ± 6.62
- Kp (stomach / blood, LPS-treated mice, stomach): 6.1
- Kp (stomach / blood, normal mice, stomach): 5.3
- AUC(0-t) (stomach, LPS-treated mice): 1340 ± 192 µg·h/mL
- AUC(0-inf) (stomach, LPS-treated mice): 1640 ± 323 µg·h/mL
- AUC(0-inf) (stomach, normal mice): 1120 ± 207 µg·h/mL
- Cmax (stomach, LPS-treated mice): 27.2 ± 9.32 µg/mL
- Cmax (stomach, normal mice): 22.3 ± 12.4 µg/mL
- MRT (stomach, LPS-treated mice): 73.3 ± 17.7 h
- MRT (stomach, normal mice): 70 ± 14 h
- Tmax (stomach, LPS-treated mice): 3.33 ± 1.15 h
- Tmax (stomach, normal mice): 4.67 ± 3.06 h
- half-life (stomach, t1/2, LPS-treated mice): 61.4 ± 13 h
- half-life (stomach, t1/2, normal mice): 64 ± 16.5 h
- Kp (AUC in tissue divided by AUC in blood) (LPS-treated mice, adipose): 2.57 ± 0.62
- Kp (AUC in tissue divided by AUC in blood) (LPS-treated mice, brain): 0.59 ± 0.17
- Kp (AUC in tissue divided by AUC in blood) (LPS-treated mice, heart): 4.27 ± 1.59
- Kp (AUC in tissue divided by AUC in blood) (LPS-treated mice, stomach): 6.13 ± 0.87
- lung AUC ratio, acutely inflamed vs normal mice (TET inhalation (i.t.) administration): 2.32
- increase in systemic blood exposure (blood AUC ratio), LPS group vs normal/saline group (i.t. route): ~ 1.25 fold and 1.25 fold
- Kp (AUC in tissue divided by AUC in blood) (normal mice, adipose): 2.39 ± 0.40
- Kp (AUC in tissue divided by AUC in blood) (normal mice, brain): 0.97 ± 0.39
- Kp (AUC in tissue divided by AUC in blood) (normal mice, heart): 5.05 ± 0.38
- Kp (AUC in tissue divided by AUC in blood) (normal mice, intestine): 8.35 ± 0.67
- Kp (AUC in tissue divided by AUC in blood) (normal mice, muscle): 2.04 ± 0.38
- Kp (AUC in tissue divided by AUC in blood) (normal mice, stomach): 5.29 ± 0.66
